According to ChEMBL document CHEMBL4177567, “Antibiotic adjuvants - A strategy to unlock bacterial resistance to antibiotics” (Bioorg Med Chem Lett, 2017):
Converted amounts (≈) assume the structure as drawn.

Experiments:
Acinetobacter baumannii = experiment: Antibacterial activity against Acinetobacter baumannii after 20 to 22 hrs by broth microdilution method; format: functional
Beta-lactamase 1 = target: T1, Beta-lactamase 1 (Bacillus cereus, UniProt P00809); experiment: Inhibition of Bacillus cereus beta-lactamase […] using CENTA as substrate up to 30 mins by Lineweaver-Burk plot analysis
T1 sequence (P00809 whole entry): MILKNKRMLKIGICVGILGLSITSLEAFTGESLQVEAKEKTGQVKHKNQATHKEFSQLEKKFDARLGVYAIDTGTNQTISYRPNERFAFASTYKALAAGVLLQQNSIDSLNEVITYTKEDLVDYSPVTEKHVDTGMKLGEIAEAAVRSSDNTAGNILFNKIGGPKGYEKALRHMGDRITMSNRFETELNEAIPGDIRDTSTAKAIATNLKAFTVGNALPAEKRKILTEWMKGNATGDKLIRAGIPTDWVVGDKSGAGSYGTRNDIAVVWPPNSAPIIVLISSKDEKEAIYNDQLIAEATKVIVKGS

Row | MIC (Acinetobacter baumannii) [mg/L] | Compound | Ki (Beta-lactamase 1) [nM]
1 | 2 (≈ 4.09 µM) | C[C@]1(COC(=O)Cc2ccc(O)c(O)c2)[C@H](C(=O)O)N2C(=O)/C(=C/c3ccccn3)[C@H]2S1(=O)=O | 
2 |  | O=C(O)c1cccc(CS(=O)(=O)C(=O)NCB(O)O)c1 | 1.3
3 |  | O=C(NCB(O)O)S(=O)(=O)c1cc(Cl)cc(-c2nnn[nH]2)c1 | 0.2
4 |  | O=C(NCB(O)O)S(=O)(=O)c1cc(-c2nnn[nH]2)cc(C(F)(F)F)c1 | 0.05
5 |  | O=C(NCB(O)O)S(=O)(=O)c1ccnc(-c2nnn[nH]2)c1 | 0.8
